Reference: US7423159B2, “Agent for preventing or treating neuropathy” (Takeda Pharmaceutical Company Limited, priority 2002, dated 2008)
pEC50: −log10 of the molar value.

Key:
[1] = test system: rat C6 glioma cells; assay: GDNF production promoting action in rat C6 glioma cells (ELISA of culture supernatant); assay type: cell-based; details: Rattus norvegicus, C6 glioma, 48 h; concentration which causes 50% increase of GDNF relative to the control group; cultured 2 days with test compound; GDNF in culture supernatant by ELISA
Protocol: Using rat C6 glioma cells, the GDNF production promoting action of the compound of the present invention was evaluated.
Rat C6 glioma cells (ATCC) were grown in Dulbecco's Modified Eagle's Medium (DMEM) containing 10% FBS (Fetal Bovine Serum) in a collagen type 1 coated 75 cm^2 culture flask (SUMITOMO BAKELITE Co., Ltd.) until near confluent, detached by trypsin treatment and washed once with DMEM containing 10% FBS.
The cells after washing were diluted with 10% FBS-containing DMEM to a concentration of 5×10^4/mL and seeded at 0.3 mL/well in each well of collagen type 1 coated 48 well culture dish (SUMITOMO BAKELITE Co., Ltd.). After 3 days, the culture in the culture dish was placed in a 1% BSA (bovine serum albumin, Sigma)-containing DMEM medium supplemented with various concentrations of test compound, and further cultured for 2 days. The culture supernatant was recovered and preserved at −80° C. until measurement of GDNF.
The content of GDNF in the culture supernatant was measured by the following ELISA Method.
Anti-GDNF antibody (MAB212, R&D) was diluted with TBS (Tris buffered physiological saline: 25 mmol/L Tris-HCl (pH 8.0), 150 mmol/L NaCl) to 2 μg/mL and dispensed at 0.1 mL/well to each well of a 96-well immunoplate. The 96-well immunoplate was incubated overnight at 4° C. and washed once with TBS containing Tween 20 at 0.05% (hereinafter to be abbreviated as TBST). A blocking solution (TBS containing 1% BSA and 5% sucrose) was added at 0.2 mL/well to each well after washing, and the plate was incubated at room temperature for 1 hr., after which each well was washed twice with TBST. The culture supernatant (0.1 mL) of the aforementioned C6 cells was added to each well after washing and the plate was incubated at room temperature for 3 hrs., after which the wells were washed 5 times with TBST. The 500-fold diluted anti-GDNF antibody (G2791, Promega) was added by 0.1 mL to each well after washing, incubated at room temperature for 2 hrs. and washed 5 times with TBST. A 5000-fold diluted horseradish peroxidase-labeled anti-chicken IgY antibody (G1351, Promega) was added at 0.1 mL/well to each well after washing, incubated at room temperature for 2 hrs. and washed 5 times with TBST. A substrate solution (TMB substrate solution, BIO-RAD) was added at 0.1 mL/well to each well after washing and allowed to develop color at room temperature for 8 min. To stop the reaction, 0.1 mL of 1 mol/L phosphoric acid was added to each well in coloring developing reaction. The absorbance of the reaction solution at 450 nm wavelength was measured.
In the same manner as above except the test compound was not used, the ELISA Method was performed and this was used as a control group.
Using various concentrations of GDNF (Promega), ELISA Method was performed in the same manner as above and standard line was prepared.
From the aforementioned absorbance and standard line, GDNF content in a sample was calculated and the concentration (EC50), which causes 50% increase of GDNF relative to the control group was calculated from the regression line.

[2] = test system: PC12 cells; assay: neuroprotective action (neurite network formation) in PC12 cells; assay type: cell-based; details: test compound 0.3-3.0 μmol/L, two days, DMEM with 0.5% FCS and 2 ng/mL NGF; observed under a microscope
Protocol: Using PC12 cells, the neuroprotective action of the compound of the present invention was evaluated.
PC12 cells were precultured for one day in a DMEM (Dulbecco's Modified Eagle's Medium) culture solution containing 10% FCS (Fetal Calf Serum) in an incubator at 37° C., 5% CO2, and seeded at 5×10^3/well in a 24 well plate (Falcon) in the same medium. After the cells adhered to the bottom surface, the culture was changed to a DMEM culture solution containing 0.5% FCS and 2 ng/mL of NGF (Wako Pure Chemical Industries, Ltd.). After culturing overnight, the test compound was added at a concentration of 0.3-3.0 μmol/L and the cells were cultured for two more days. Gultalaldehyde was added to the cultured to a final concentration of 2% and the cells were fixed for 1 hr., after which stained with a Diff-Quick (International Reagents Corporation). The cells were washed, dried with air and observed under a microscope.

Row | Compound | pEC50 [1] | melting point | formation of neurite network [2]
1 | Cn1ncc(/C=C/C(=O)Nc2ccc(CC3SC(=O)NC3=O)cc2)c1-c1ccc(F)cc1 (stereo not drawn) [Example 60, (2E)-N-{4-[(2,4-Dioxo-1,3-thiazolidin-5-yl)methyl]phenyl}-3-[5-(4-fluorophenyl)-1-methyl-1H-pyrazol-4-yl]acrylamide] | 6.10 | 149 to 150 °C | promoted formation of neurite network
2 | Cn1ncc(/C=C/C(=O)Nc2ccc(Cn3cccn3)cc2)c1-c1ccc(F)cc1 [Example 161, (2E)-3-[5-(4-Fluorophenyl)-1-methyl-1H-pyrazol-4-yl]-N-[4-(1H-pyrazol-1-ylmethyl)phenyl]acrylamide] | 6.89 | 189 to 191 °C | promoted formation of neurite network
3 | CN1C(=O)SC(Cc2ccc(NC(=O)/C=C/c3cnn(C)c3-c3ccc(F)cc3)cc2)C1=O (stereo not drawn) [Example 110, (2E)-3-[5-(4-Fluorophenyl)-1-methyl-1H-pyrazol-4-yl]-N-{4-[(3-methyl-2,4-dioxo-1,3-thiazolidin-5-yl)methyl]phenyl}acrylamide] | 6.51 | 228 to 229 °C | promoted formation of neurite network

Further lines, with some results ahead:

Row | pEC50 [1] | melting point | Compound | formation of neurite network [2]
4 | 7.44 | 257 to 258 °C | CCS(=O)(=O)Cc1ccc(NC(=O)/C=C/c2cnn(C)c2-c2ccc(F)cc2)cc1 [Example 223, (2E)-N-{4-[(Ethylsulfonyl)methyl]phenyl}-3-[5-(4-fluorophenyl)-1-methyl-1H-pyrazol-4-yl]acrylamide] | promoted formation of neurite network
5 | 6.27 | 202 to 203 °C | Cn1ncc(/C=C/C(=O)Nc2ccc(CN3CCOCC3)cc2)c1-c1ccc(F)cc1 [Example 192, (2E)-3-[5-(4-Fluorophenyl)-1-methyl-1H-pyrazol-4-yl]-N-[4-(4-morpholinylmethyl)phenyl]acrylamide] | promoted formation of neurite network
